Laboratory results as given in patent US10421761B2, “Compounds for kinase modulation, and indications therefor” (Plexxikon Inc., priority 2013, dated 2019).
Where two headings read alike, the source gives them in different places.

Test system: B9 cells

CCCS(=O)(=O)Nc1ccc(F)c(C(=O)c2c[nH]c3ncc(-c4ccc(Cl)cc4)cc23)c1F [vemurafenib]
probe 1416811_s_at response, Ctla2a /// Ctla2b (cytotoxic T lymphocyte-associated protein 2 alpha /// cytotoxic T lymphocyte-associated protein 2 beta): 1.92
probe 1452352_at response, Ctla2b (cytotoxic T lymphocyte-associated protein 2 beta): 2.37
expression of gene probe 1416454_s_at (Acta2) (B9 cells, Repl. 1): 0.23
expression of gene probe 1416612_at (Cyp1b1) (B9 cells, Repl. 1): 0.19
expression of gene probe 1418240_at (Gbp2) (B9 cells, Repl. 1): 0.30
expression of gene probe 1418497_at (Fgf13) (B9 cells, Repl. 1): 0.39
expression of gene probe 1419089_at (Timp3) (B9 cells, Repl. 1): 0.26
expression of gene probe 1427183_at (Efemp1) (B9 cells, Repl. 1): 0.30
expression of gene probe 1427747_a_at (Lcn2) (B9 cells, Repl. 1): 0.36
expression of gene probe 1435906_x_at (Gbp2) (B9 cells, Repl. 1): 0.21
expression of gene probe 1438931_s_at (LOC100047324 /// Sesn1) (B9 cells, Repl. 1): 0.35
expression of gene probe 1438988_x_at (Hn1) (B9 cells, Repl. 1): 0.26
expression of gene probe 1440147_at (Lgi2) (B9 cells, Repl. 1): 0.34
expression of gene probe 1448734_at (Cp) (B9 cells, Repl. 1): 0.31
expression of gene probe 1449227_at (Ch25h) (B9 cells, Repl. 1): 0.25
expression of gene probe 1449335_at (Timp3) (B9 cells, Repl. 1): 0.24
expression of gene probe 1449340_at (Sostdc1) (B9 cells, Repl. 1): 0.17
expression of gene probe 1449815_a_at (Ssbp2) (B9 cells, Repl. 1): 0.38
expression of gene probe 1450618_a_at (Sprr2a) (B9 cells, Repl. 1): 0.36
expression of gene probe 1460250_at (Sostdc1) (B9 cells, Repl. 1): 0.23
expression of gene probe 1416454_s_at (Acta2) (B9 cells, Repl. 2): 0.20
expression of gene probe 1416612_at (Cyp1b1) (B9 cells, Repl. 2): 0.16
expression of gene probe 1418240_at (Gbp2) (B9 cells, Repl. 2): 0.28
expression of gene probe 1418497_at (Fgf13) (B9 cells, Repl. 2): 0.38
expression of gene probe 1419089_at (Timp3) (B9 cells, Repl. 2): 0.31
expression of gene probe 1427183_at (Efemp1) (B9 cells, Repl. 2): 0.37
expression of gene probe 1427747_a_at (Lcn2) (B9 cells, Repl. 2): 0.35
expression of gene probe 1435906_x_at (Gbp2) (B9 cells, Repl. 2): 0.30
expression of gene probe 1438931_s_at (LOC100047324 /// Sesn1) (B9 cells, Repl. 2): 0.33
expression of gene probe 1438988_x_at (Hn1) (B9 cells, Repl. 2): 0.27
expression of gene probe 1440147_at (Lgi2) (B9 cells, Repl. 2): 0.38
expression of gene probe 1448734_at (Cp) (B9 cells, Repl. 2): 0.30
expression of gene probe 1449227_at (Ch25h) (B9 cells, Repl. 2): 0.29
expression of gene probe 1449335_at (Timp3) (B9 cells, Repl. 2): 0.36
expression of gene probe 1449340_at (Sostdc1) (B9 cells, Repl. 2): 0.20
expression of gene probe 1449815_a_at (Ssbp2) (B9 cells, Repl. 2): 0.38
expression of gene probe 1450618_a_at (Sprr2a) (B9 cells, Repl. 2): 0.41
expression of gene probe 1460250_at (Sostdc1) (B9 cells, Repl. 2): 0.20
probe 1415828_a_at response, Serp1 (stress-associated endoplasmic reticulum protein 1) (Repl. 1, B9 cells): 2.05
probe 1415936_at response, Bcar3 (breast cancer anti-estrogen resistance 3) (Repl. 1, B9 cells): 2.21
probe 1416129_at response, Errfi1 (ERBB receptor feedback inhibitor 1) (Repl. 1, B9 cells): 3.31
probe 1416246_a_at response, Coro1a (coronin, actin binding protein 1A) (Repl. 1, B9 cells): 1.90
probe 1416325_at response, Crisp 1 (cysteine-rich secretory protein 1) (Repl. 1, B9 cells): 5.15
probe 1416401_at response, Cd82 (CD82 antigen) (Repl. 1, B9 cells): 2.87
probe 1416488_at response, Ccng2 (cyclin G2) (Repl. 1, B9 cells): 2.23
probe 1416527_at response, Rab32 (RAB32, member RAS oncogene family) (Repl. 1, B9 cells): 0.42
probe 1416811_s_at response, Ctla2a /// Ctla2b (cytotoxic T lymphocyte-associated protein 2 alpha /// cytotoxic T lymphocyte-associated protein 2 beta) (Repl. 1, B9 cells): 2.28
probe 1417065_at response, Egr1 (early growth response 1) (Repl. 1, B9 cells): 4.13
probe 1417130_s_at response, Angptl4 (angiopoietin-like 4) (Repl. 1, B9 cells): 3.10
probe 1417328_at response, Ercc1 (excision repair cross-complementing rodent repair deficiency, complementation group 1) (Repl. 1, B9 cells): 2.20
probe 1417488_at response, Fosl1 (fos-like antigen 1) (Repl. 1, B9 cells): 2.09
probe 1417494_a_at response, Cp (ceruloplasmin) (Repl. 1, B9 cells): 0.39
probe 1417495_x_at response, Cp (ceruloplasmin) (Repl. 1, B9 cells): 0.48
probe 1417533_a_at response, Itgb5 (integrin beta 5) (Repl. 1, B9 cells): 0.50
probe 1417625_s_at response, Cxcr7 (chemokine (C-X-C motif) receptor 7) (Repl. 1, B9 cells): 2.03
probe 1417677_at response, Opn3 (opsin 3) (Repl. 1, B9 cells): 2.18
probe 1417812_a_at response, Lamb3 (laminin, beta 3) (Repl. 1, B9 cells): 2.60
probe 1417837_at response, Phlda2 (pleckstrin homology-like domain, family A, member 2) (Repl. 1, B9 cells): 2.26
probe 1417902_at response, Slc19a2 (solute carrier family 19 (thiamine transporter), member 2) (Repl. 1, B9 cells): 2.00
probe 1417962_s_at response, Ghr (growth hormone receptor) (Repl. 1, B9 cells): 2.19
probe 1418349_at response, Hbegf (heparin-binding EGF-like growth factor) (Repl. 1, B9 cells): 3.29
probe 1418350_at response, Hbegf (heparin-binding EGF-like growth factor) (Repl. 1, B9 cells): 2.66
probe 1418538_at response, Kdelr3 (KDEL (Lys-Asp-Glu-Leu) endoplasmic reticulum protein retention receptor 3) (Repl. 1, B9 cells): 2.08
probe 1418539_a_at response, Ptpre (protein tyrosine phosphatase, receptor type, E) (Repl. 1, B9 cells): 1.94
probe 1419149_at response, Serpine1 (serine (or cysteine) peptidase inhibitor, clade E, member 1) (Repl. 1, B9 cells): 2.13
probe 1419188_s_at response, Ccl27a /// Gm13306 (chemokine (C-C motif) ligand 27A /// predicted gene 13306) (Repl. 1, B9 cells): 2.62
probe 1419317_x_at response, Lce3c (late cornified envelope 3C) (Repl. 1, B9 cells): 2.53
probe 1419322_at response, Fgd6 (FYVE, RhoGEF and PH domain containing 6) (Repl. 1, B9 cells): 2.60
probe 1419529_at response, Il23a (interleukin 23, alpha subunit p19) (Repl. 1, B9 cells): 2.84
probe 1419671_a_at response, Il17rc (interleukin 17 receptor C) (Repl. 1, B9 cells): 0.49
probe 1419722_at response, Klk8 (kallikrein related-peptidase 8) (Repl. 1, B9 cells): 2.02
probe 1419816_s_at response, Errfi1 (ERBB receptor feedback inhibitor 1) (Repl. 1, B9 cells): 3.87
probe 1420352_at response, Prss22 (protease, serine, 22) (Repl. 1, B9 cells): 3.07
probe 1420380_at response, Cc12 (chemokine (C-C motif) ligand 2) (Repl. 1, B9 cells): 0.37
probe 1420407_at response, Ltb4r1 (leukotriene B4 receptor 1) (Repl. 1, B9 cells): 2.29
probe 1420450_at response, Mmp10 (matrix metallopeptidase 10) (Repl. 1, B9 cells): 3.42
probe 1420537_at response, Kctd4 (potassium channel tetramerisation domain containing 4) (Repl. 1, B9 cells): 2.36
probe 1420760_s_at response, Ndrg1 (N-myc downstream regulated gene 1) (Repl. 1, B9 cells): 1.90
probe 1420913_at response, Slco2a1 (solute carrier organic anion transporter family, member 2a1) (Repl. 1, B9 cells): 1.92
probe 1420955_at response, Vsnl1 (visinin-like 1) (Repl. 1, B9 cells): 0.38
probe 1421134_at response, Areg (amphiregulin) (Repl. 1, B9 cells): 4.28
probe 1421269_at response, Ugcg (UDP-glucose ceramide glucosyltransferase) (Repl. 1, B9 cells): 2.46
probe 1421279_at response, Lamc2 (laminin, gamma 2) (Repl. 1, B9 cells): 2.23
probe 1421403_at response, Pi15 (peptidase inhibitor 15) (Repl. 1, B9 cells): 2.04
probe 1421551_s_at response, Ifi202b (interferon activated gene 202B) (Repl. 1, B9 cells): 3.58
probe 1421668_x_at response, Speer3 (spermatogenesis associated glutamate (E)-rich protein 3) (Repl. 1, B9 cells): 2.74
probe 1421679_a_at response, Cdkn1a (cyclin-dependent kinase inhibitor 1A (P21)) (Repl. 1, B9 cells): 4.27
probe 1421888_x_at response, Aplp2 (amyloid beta (A4) precursor-like protein 2) (Repl. 1, B9 cells): 0.65
probe 1421943_at response, Tgfa (transforming growth factor alpha) (Repl. 1, B9 cells): 1.93
probe 1422028_a_at response, Ets1 (E26 avian leukemia oncogene 1, 5′ domain) (Repl. 1, B9 cells): 2.13
probe 1422101_at response, Tnfrsf23 (tumor necrosis factor receptor superfamily, member 23) (Repl. 1, B9 cells): 2.04
probe 1422138_at response, Plau (plasminogen activator, urokinase) (Repl. 1, B9 cells): 2.73
probe 1422139_at response, Plau (plasminogen activator, urokinase) (Repl. 1, B9 cells): 2.45
probe 1422222_at response, Ivl (involucrin) (Repl. 1, B9 cells): 2.50
probe 1422240_s_at response, Sprr2h (small proline-rich protein 2H) (Repl. 1, B9 cells): 1.95
probe 1422273_at response, Mmp1b (matrix metallopeptidase 1b (interstitial collagenase)) (Repl. 1, B9 cells): 3.30
probe 1422324_a_at response, Pthlh (parathyroid hormone-like peptide) (Repl. 1, B9 cells): 2.11
probe 1422537_a_at response, Id2 (inhibitor of DNA binding 2) (Repl. 1, B9 cells): 0.53
probe 1422771_at response, Smad6 (MAD homolog 6 (Drosophila)) (Repl. 1, B9 cells): 0.46
probe 1422924_at response, Tnfsf9 (tumor necrosis factor (ligand) superfamily, member 9) (Repl. 1, B9 cells): 2.01
probe 1423017_a_at response, Il1rn (interleukin 1 receptor antagonist) (Repl. 1, B9 cells): 2.63
probe 1423543_at response, Swap70 (SWA-70 protein) (Repl. 1, B9 cells): 1.88
probe 1423597_at response, Atp8a1 (ATPase, aminophospholipid transporter (APLT), class I, type 8A, member 1) (Repl. 1, B9 cells): 2.02
probe 1423635_at response, Bmp2 (bone morphogenetic protein 2) (Repl. 1, B9 cells): 2.41
probe 1423690_s_at response, Gpsm1 (G-protein signalling modulator 1 (AGS3-like, C. elegans)) (Repl. 1, B9 cells): 3.37
probe 1423933_a_at response, 1600029D21Rik (RIKEN cDNA 1600029D21 gene) (Repl. 1, B9 cells): 2.06
probe 1424022_at response, Osgin1 (oxidative stress induced growth inhibitor 1) (Repl. 1, B9 cells): 2.27
probe 1424090_at response, Sdcbp2 (syndecan binding protein (syntenin) 2) (Repl. 1, B9 cells): 4.08
probe 1424306_at response, Elovl4 (elongation of very long chain fatty acids (FEN1/Elo2, SUR4/Elo3, yeast)-like 4) (Repl. 1, B9 cells): 2.51
probe 1424383_at response, Tmem51 (transmembrane protein 51) (Repl. 1, B9 cells): 2.58
probe 1424471_at response, Rapgef3 (Rap guanine nucleotide exchange factor (GEF) 3) (Repl. 1, B9 cells): 2.18
probe 1424638_at response, Cdkn1a (cyclin-dependent kinase inhibitor 1A (P21)) (Repl. 1, B9 cells): 2.76
probe 1424783_a_at response, Ugt1a1 /// Ugt1a10 /// Ugt1a2 /// Ugt1a5 /// Ugt1a6a /// Ugt1a6b /// Ugt1aTc /// Ugt1a9 (UDP glucuronosyltransferase 1 family) (Repl. 1, B9 cells): 0.39
probe 1425452_s_at response, Fam84a (family with sequence similarity 84, member A) (Repl. 1, B9 cells): 2.41
probe 1425660_at response, Btbd3 (BTB (POZ) domain containing 3) (Repl. 1, B9 cells): 2.08
probe 1426037_a_at response, Rgs16 (regulator of G-protein signaling 16) (Repl. 1, B9 cells): 3.19
probe 1426181_a_at response, I124 (interleukin 24) (Repl. 1, B9 cells): 5.52
probe 1426260_a_at response, Ugt1a1 /// Ugt1a10 /// Ugt1a2 /// Ugt1a5 /// Ugt1a6a /// Ugt1a6b /// Ugt1aTc /// Ugt1a9 (UDP glucuronosyltransferase 1 family) (Repl. 1, B9 cells): 0.39
